Assay results as given in patent publication US5593970A, “Heterocyclic anthracycline analogs” (priority 1994, dated 1997).
Where a name gives a salt, the structure may show the parent alone. Read-outs that look alike come from different tables or passages of the source.

Legend:
HT29 [1] = test: Soft agar colony formation disk diffusion assay; assay type: cell-based, human
From the text: A more elaborate version of this fundamental assay, the soft agar colony formation disk diffusion assay was used. […] The effect of the test drug against tumoral cells could be measured by its inhibitory capacity against colony formation after the delivery of the compound, in different concentrations on an filter disk(4). A modified technique of this assay was used in order to investigate the antiproliferative activity of candidate compounds. Tumoral cells from solid tumors and ascitic lines were plated separately in a two layer agar matrix. Cell lines to be tested were suspended in an upper layer of 0.4% Noble agar (Difco#00142-01) in RPMI-1066 (Gibco#3201875) at a yield varying between 10^4 to 2×10^5 cells per 60 mm Petri dish. Plating efficiency was determined for each line in order to achieve an optimal number of colonies per dish. […] The bottom layer consisted of 0.8% Noble agar, 0.8% Tryptic Soy Broth (difco#0037001)in CMRL-1066/Fischer's. The bottom layers were used within 2 and 9 days of preparation. Plated dishes (bottom layer of agar, upper layer of cells and administered drug were incubated in humidified atmosphere at 37° C., 5% CO2 for 10-20 days depending upon the time necessary to observe adequate colonies (defined as a cell aggregate of more than 50 cells) both control and drug inhibited. Drugs were administered on a paper filter disk (Whatman No. 1) of 6.5 mm diameter placed on the upper layer at 1/3 distance from the edge of the dish. The anti-clonogenic activity of the compounds was measured as the zone of inhibition from the disk edge to the most proximal colonies. This zone of inhibition was checked on an inverted microscope (40×) and was measured with a micrometer mounted in the eyepiece. The ocular micrometer was calibrated with a stage micrometer set for a particular combination of ocular and objective lenses. […] We made a modification of the initial technique by not plating a solid tumor and a leukemia simultaneously in the same Petri dish. […] HUMAN TUMORS. […] LS180 (13) and BE1(14) were obtained from the Oncology Dept. of the Montreal General Hospital. […] Cell lines were routinely passaged twice a week by trypsinization and maintained in 25, or 75-sq. cm Falcon Plastic flasks at 37° C., 5% CO2 in humidified atmosphere. Both compounds were dissolved in DMSO (1 mg/100 ul) and brought to final volume (250 ul) with Millipore deionized sterile water. Further dilutions were made with […] volume of 25 ul of freshly prepared solution was placed on the filter disk and allowed to dry.

SKOV3 = test: Microculture tetrazolium assay; assay type: cell-based; details: read-out: IC50
T47D = test: Microculture tetrazolium assay; assay type: cell-based; details: read-out: IC50
HT29 [2] = test: Microculture tetrazolium assay; assay type: cell-based; details: read-out: IC50
SC Lung = test: NCI assay, average per cancer type; details: Homo sapiens; for CC50: 48 h, read-out: Average LOG10 LC50; for GI50: read-out: Average LOG10 GI50
Colon = test: NCI assay, average per cancer type; details: Homo sapiens; for CC50: 48 h, read-out: Average LOG10 LC50; for GI50: read-out: Average LOG10 GI50
Ovarian = test: NCI assay, average per cancer type; details: Homo sapiens; for CC50: 48 h, read-out: Average LOG10 LC50; for GI50: read-out: Average LOG10 GI50

IC50 (SKOV3; SKOV3) [µM] | IC50 (T47D) [µM] | IC50 (HT29 [2]; HT29) [µM] | Compound | zone of inhibition (HT29 [1]; 10 μg/DISK) [Zone Units] | zone of inhibition (HT29 [1]; 100 μg/DISK) [Zone Units] | IC50 (SKOV3; Homo sapiens, SK-OV-3, SKOV3) [µM] | IC50 (T47D; Homo sapiens) [µM] | IC50 (HT29 [2]; Homo sapiens, HT-29, HT29) [µM] | CC50 (SC Lung) [µM] | GI50 (SC Lung) [µM] | CC50 (Colon) [µM] | GI50 (Colon) [µM] | CC50 (Ovarian) [µM] | GI50 (Ovarian) [µM]
41.6 | 16.3 | 18.9 | 3-carbomethoxy-6-hydroxy-1,2,3,4-tetrahydro-(2-sulfur)naphthacene-5,12-dione and 3-carbomethoxy-11-hydroxy-1,2,3,4-tetrahydro(2-sulfur)naphthacene-5,12-dione [BCH-693] | 0 | 39.6 ± 4.3 | – | – | – | – | – | – | – | – | –
– | – | – | CCOC(=O)[C@@H]1CC2=C(C(=O)c3cc4ccccc4c(O)c3C2=O)[C@@H](O[C@H]2C[C@H](NC(=O)C(F)(F)F)[C@H](O)[C@H](C)O2)O1 [BCH-681, (1'S,1R,3S)Ethyl[6-hydroxy-5,12-dioxo-1-(3'-trifuloroacetamido-1-daunosaminyl)-3,4,5,12-tetrahydroanthraceno(2,3-C)pyran-3-yl]formate] | 106.7 ± 21.5 | 213.5 ± 43.1 | 6.02 | 8.15 | 1.72 | 6.61 | 1.7 | 7.24 | 1.41 | 16.6 | 2.69
8.22 | 11.3 | 13.4 | 3-(2-hydroxy)aceto-6-hydroxy-1,2,3,4-tetrahydro-(2-oxygen)naphthacene-5,12-dione and 3-(2-hydroxy)aceto-11-hydroxy-1,2,3,4-tetrahydro-(2-oxygen)naphthacene-5,12-dione [BCH-694] | 30.5 ± 8.6 | 143.3 ± 30.1 | – | – | – | – | – | – | – | – | –
– | – | – | CCOC(=O)C1Cc2c(c(OC)c3c(c2OC)C(=O)c2ccccc2C3=O)CS1 (stereo not drawn) [BCH-717] | 0 | 0 | > 100 | > 100 | > 100 | – | – | – | – | – | –
– | – | – | C=CC1CC2=C(C(=O)c3cc4ccccc4c(O)c3C2=O)C(OC)O1 (stereo not drawn) [BCH-712, 6-hydroxy-1-methoxy-1,2,3,4-tetrahydro-3-vinyl-(2-oxygen) naphthacene-5,12-dione] | 0 | 55.0 ± 8.4 | – | – | – | – | – | – | – | – | –
– | – | – | COC(=O)[C@H]1CC2=C(C(=O)c3c(c(OC)c4ccccc4c3O)C2=O)[C@H](O[C@H]2C[C@H](NC(=O)C(F)(F)F)[C@H](O)[C@H](C)O2)O1 (mixture of isomers) [BCH-675, (1'S,1S,3R) and 1'S,1R,3S) Methyl(11-hydroxy-6-methoxy-1-[2',3',6'-trideoxy-3-trifluoroacetamido-4'-hydroxy-L-lyxohexopyranose]-5,12-dioxo-3,4,5,12-tetrahydroanthra-ceno[2,3-c]pyran-3-yl) formate] | 0 | 0 | 9.16 | 2.8 | 5.26 | – | 7.24 | 85.1 | 8.71 | 63.1 | 8.51
– | – | – | CCOC(=O)C1CC2=C(CO1)C(=O)c1cc3ccccc3c(O)c1C2=O (stereo not drawn) [BCH-653, Ethyl(6 and 11 hydroxy-5,12-dioxo-3,4,5,12-tetrahydro-anthraceno[2,3-c]pyran-3-yl)]formate] | – | 42.7 ± 8.6 | – | – | – | > 100 | 28.8 | > 100 | 35.5 | > 100 | 38
– | – | – | CCOC(=O)C1CC2=C(CO1)C(=O)c1c(cc3ccccc3c1O)C2=O (stereo not drawn) [BCH-651, Ethyl(6 and 11 hydroxy-5,12-dioxo-3,4,5,12-tetrahydro-anthraceno[2,3-c]pyran-3-yl)]formate] | 0 | 61.0 ± 1.0 | 20.8 | 36.3 | 17 | 61.7 | 2.75 | 41.7 | 3.39 | 46.8 | 5.89
– | – | – | COC(=O)C1CC2=C(C(=O)c3c(cc4ccccc4c3O)C2=O)C(O[C@H]2C[C@H](NC(=O)C(F)(F)F)[C@H](O)[C@H](C)O2)O1 (mixture of isomers) [BCH-242, (1'S,1R,3S) and (1'S, 1S,3R)-Methyl[11-hydroxy-1-2',3',6'-trideoxy-3-trifluroacetamido-L-lyxohexopyranose)-5,12-dioxo-3,4,5,12-tetrahydroanthraceno[2,3-c]pyran-3-yl]formate] | – | – | – | – | – | – | 0.355 | 2.57 | 0.316 | – | 0.741
55.8 | 47.8 | 23.4 | CC(=O)Oc1c2c(c(O)c3ccccc13)C(=O)C1=C(CC(C(C)=O)OC1)C2=O (stereo not drawn) [BCH-721] | 55.5 ± 8.0 | 121.5 ± 43.1 | – | – | – | – | – | – | – | – | –
– | – | – | CCOC(=O)C1CC2=C(CO1)C(=O)c1c(c(O)c3ccccc3c1OC(C)=O)C2=O (stereo not drawn) [BCH-654, Ethyl[11-acetoxy-6-hydroxy-5,12-dioxo-3,4,5,12-tetrahydroanthraceno(2,3-c)pyran-3-yl]formate] | 0 | 106.5 ± 21.9 | 98.4 | > 100 | 47.3 | – | – | – | – | – | –
– | – | – | CCOC(=O)[C@@H]1CC2=C(C(=O)c3cc4ccccc4c(OC(C)=O)c3C2=O)[C@@H](O)O1 (mixture of isomers) [BCH-660, (1S,3S) and (1R,3R)-Ethyl-[6-acetoxy-1-hydroxy-5,12-dioxo-3,4,5,12-tetrahydroanthraceno (2,3-c)pyran-3-yl]formate] | 27.4 ± 4.3 | 103.7 ± 2.1 | 5.34 | 6.67 | 2.92 | > 100 | 1 | > 100 | 0.617 | 6.61 | 0.955
– | – | – | COC(=O)[C@@H]1CC2=C(C(=O)c3c(c(OC)c4ccccc4c3O)C2=O)[C@@H](O[C@H]2C[C@H](NC(=O)C(F)(F)F)[C@H](O)[C@H](C)O2)O1 (mixture of isomers) [BCH-674, (1'S,1S,3R) and 1'S,1R,3S) Methyl(11-hydroxy-6-methoxy-1-[2',3',6'-trideoxy-3-trifluoroacetamido-4'-hydroxy-L-lyxohexopyranose]-5,12-dioxo-3,4,5,12-tetrahydroanthra-ceno[2,3-c]pyran-3-yl) formate] | 122.2 ± 80.6 | 36.6 ± 17.2 | 7.46 | 4.17 | 6.63 | 120 | 13.2 | 97.7 | 13.5 | 83.2 | 15.8
– | – | – | CCOC(=O)[C@@H]1CC2=C(C(=O)c3c(c(O)c4ccccc4c3OC(C)=O)C2=O)[C@@H](O)O1 (mixture of isomers) [BCH-658, (1S,3S) and (1R,3R) Ethyl[11-acetoxy-1,6-dihydroxy-5,12-dioxo-3,4,5,12-tetrahydroanthraceno (2,3-c)pyran-3-yl]formate] | 0 | 0 | 11.2 | > 100 | > 100 | > 100 | > 100 | > 100 | 61.7 | > 100 | > 100

Compound | IC50 (SKOV3; SKOV3) [µM] | IC50 (T47D) [µM] | IC50 (HT29 [2]; HT29) [µM] | zone of inhibition (HT29 [1]; 10 μg/DISK) [Zone Units] | zone of inhibition (HT29 [1]; 100 μg/DISK) [Zone Units] | IC50 (SKOV3; Homo sapiens, SK-OV-3, SKOV3) [µM] | IC50 (T47D; Homo sapiens) [µM] | IC50 (HT29 [2]; Homo sapiens, HT-29, HT29) [µM] | CC50 (SC Lung) [µM] | GI50 (SC Lung) [µM] | CC50 (Colon) [µM] | GI50 (Colon) [µM] | CC50 (Ovarian) [µM] | GI50 (Ovarian) [µM]
3-Carbomethoxy-1,11-dihydroxy-1,2,3,4-tetrahydro-(2-oxygen)naphthacene-5,12-dione 3-Carbomethoxy-1,6-dihydroxy-1,2,3,4-tetrahydro-(2-oxygen)naphthacene-5,12-dione [BCH-711] | 11.1 | 12.4 | 5.68 | 27.0 ± 4.2 | 91.5 ± 43.1 | – | – | – | – | – | – | – | – | –
